Measurements published in the NIST ThermoML archive (doi:10.1016/j.jct.2005.06.015).

Columns and labels:
[1] = xn = mol fraction of the nth substance listed; settings: 101 kPa, Liquid
[2] = refractive index (Na D-line) (dimensionless); xn = mol fraction of the nth substance listed; settings: 101 kPa, Liquid, Standard Abbe refractometry

CCCCCCO [hexan-1-ol] + ClC(Cl)C(Cl)Cl
x2 = 0
Settings	mass density, [1] [kg/m3]	refractive index, [2]
293.15 K	818.72	1.41807
303.15 K	811.73	1.41423

ClC(Cl)C(Cl)Cl [1,1,2,2-tetrachloroethane] + CCCCCO
Settings	mass density, [1] [kg/m3]	refractive index, [2]
293.15 K, x1 = 0.1015	892.95	1.41801
293.15 K, x1 = 0.2006	969.17	1.42587
293.15 K, x1 = 0.3019	1046.97	1.43392
293.15 K, x1 = 0.4001	1122.53	1.44184
293.15 K, x1 = 0.5005	1199.96	1.45
293.15 K, x1 = 0.5995	1276.74	1.45825
293.15 K, x1 = 0.7005	1355.55	1.46691
293.15 K, x1 = 0.8008	1434.56	1.4757
293.15 K, x1 = 0.9001	1513.69	1.48463
293.15 K, x1 = 1	1594.27	1.49387
303.15 K, x1 = 0.1015	884.5	1.41395
303.15 K, x1 = 0.2006	959.53	1.42166
303.15 K, x1 = 0.3019	1036.17	1.42959
303.15 K, x1 = 0.4001	1110.64	1.43735
303.15 K, x1 = 0.5005	1186.94	1.44547
303.15 K, x1 = 0.5995	1262.57	1.45363
303.15 K, x1 = 0.7005	1340.1	1.46218
303.15 K, x1 = 0.8008	1417.76	1.47093
303.15 K, x1 = 0.9001	1495.54	1.47979
303.15 K, x1 = 1	1574.85	1.48887

ClC(Cl)C(Cl)Cl [1,1,2,2-tetrachloroethane] + CCCCCCCCO
Settings	mass density, [1] [kg/m3]	refractive index, [2]
293.15 K, x1 = 0.1028	879.91	1.43403
293.15 K, x1 = 0.1967	933.27	1.43826
293.15 K, x1 = 0.2997	995.8	1.44321
293.15 K, x1 = 0.4005	1061.47	1.44845
293.15 K, x1 = 0.501	1132.1	1.45416
293.15 K, x1 = 0.6	1207.5	1.46034
293.15 K, x1 = 0.6999	1290.57	1.46723
293.15 K, x1 = 0.7998	1381.66	1.47492
293.15 K, x1 = 0.9007	1483.42	1.48379
293.15 K, x1 = 1	1594.27	1.49387
303.15 K, x1 = 0.1028	872.01	1.43011
303.15 K, x1 = 0.1967	924.42	1.43419
303.15 K, x1 = 0.2997	985.92	1.43892
303.15 K, x1 = 0.4005	1050.64	1.44404
303.15 K, x1 = 0.501	1120.29	1.44968
303.15 K, x1 = 0.6	1194.6	1.45579
303.15 K, x1 = 0.6999	1276.31	1.46262
303.15 K, x1 = 0.7998	1365.71	1.47026
303.15 K, x1 = 0.9007	1465.56	1.47898
303.15 K, x1 = 1	1574.85	1.48887

ClC(Cl)C(Cl)Cl [1,1,2,2-tetrachloroethane] + CCCCCCCCCCO
Settings	mass density, [1] [kg/m3]	refractive index, [2]
293.15 K, x1 = 0.1023	874.88	1.44019
293.15 K, x1 = 0.2004	922	1.44342
293.15 K, x1 = 0.3006	974.95	1.44704
293.15 K, x1 = 0.4005	1033.5	1.45108
293.15 K, x1 = 0.5009	1099.29	1.45575
293.15 K, x1 = 0.6001	1172.37	1.46097
293.15 K, x1 = 0.6999	1255.81	1.46711
293.15 K, x1 = 0.8	1351.62	1.47434
293.15 K, x1 = 0.901	1464.04	1.48303
293.15 K, x1 = 1	1594.27	1.49387
303.15 K, x1 = 0.1023	867.03	1.43656
303.15 K, x1 = 0.2004	913.42	1.43969
303.15 K, x1 = 0.3006	965.57	1.44313
303.15 K, x1 = 0.4005	1023.2	1.44706
303.15 K, x1 = 0.5009	1087.89	1.45152
303.15 K, x1 = 0.6001	1159.72	1.45665
303.15 K, x1 = 0.6999	1241.75	1.46263
303.15 K, x1 = 0.8	1336.02	1.46974
303.15 K, x1 = 0.901	1446.7	1.47826
303.15 K, x1 = 1	1574.85	1.48887
